Results reported in ChEMBL document CHEMBL1146807, “A new family of quinoline and quinoxaline analogues of combretastatins” (Bioorg Med Chem Lett, 2004).
pIC50: −log10 of the molar value. Active and inactive are the calls of the source. The calls are words filed in the database; no cut-off is given here.

Experiments:
HCT-116 = test: Cytotoxic activity against H116 cell line; type: functional, cell-based; conditions: Homo sapiens
HT-29 = test: Cytotoxic activity against HT-29 cell line; type: functional, cell-based; conditions: Homo sapiens
SK-MEL-28 = test: Cytotoxic activity against MEL-28 cell line; type: functional, cell-based; conditions: Homo sapiens
P388 = test: Cytotoxic activity against P-388 cell line; type: functional, cell-based; conditions: Mus musculus
A549 = test: Cytotoxic activity against A-549 cell line; type: functional, cell-based; conditions: Homo sapiens
[1] = Compound tested for inhibition of tubulin polymerization; type: functional
[2] = Compound tested for inhibition of tubulin polymerization at 60 uM; No inhibition; type: functional

| pIC50 [1] | Structure (SMILES) | pIC50 (HCT-116) | pIC50 (HT-29) | pIC50 (SK-MEL-28) | pIC50 (P388) | pIC50 (A549) | inhibition [2] |
| --- | --- | --- | --- | --- | --- | --- | --- |
| – | COc1ccc(/C=C\c2cc(OC)c(OC)c(OC)c2)cc1O [COMBRETASTATIN A4] | 8.50 | – | – | – | – | – |
| – | COc1cc(/C=C/c2cnc3ccccc3c2)cc(OC)c1OC | < 5.50 | < 5.50 | < 5.50 | < 5.50 | < 5.50 | – |
| 4.70 | COc1cc(/C=C\c2ccc3cccnc3c2)cc(OC)c1OC | 6.80 | 6.80 | 6.80 | 6.80 | 6.80 | – |
| – | COc1cc(/C=C/c2ccc3nccnc3c2)cc(OC)c1OC | < 4.80 | < 4.80 | < 4.80 | < 4.80 | < 4.80 | – |
| – | COc1cc(/C=C/c2ccc3cccnc3c2)cc(OC)c1OC | 5.80 | 5.80 | 5.80 | 5.80 | 5.80 | – |
| – | COc1cc(/C=C\c2ccc3nc(C)c(C)nc3c2)cc(OC)c1OC | < 4.80 | < 4.80 | < 4.80 | < 4.80 | < 4.80 | inactive |
| – | COc1cc(/C=C/c2ccc3nc(C)c(C)nc3c2)cc(OC)c1OC | < 4.80 | < 4.80 | < 4.80 | < 4.80 | < 4.80 | – |
| – | COc1cc(/C=C\c2ccc3nccnc3c2)cc(OC)c1OC | 5.10 | 5.10 | 5.10 | 5.10 | 5.10 | inactive |
| – | COc1cc(/C=C\c2ccc3ccccc3n2)cc(OC)c1OC | 6.50 | 6.50 | 6.50 | 6.50 | 6.50 | – |
| – | COc1cc(/C=C\c2cnc3ccccc3c2)cc(OC)c1OC | 6.40 | 6.40 | 6.40 | 6.40 | 6.40 | – |
| – | COc1cc(/C=C/c2ccc3ccccc3n2)cc(OC)c1OC | 6.40 | 6.40 | 6.40 | 6.40 | 6.40 | – |
| – | COc1cc(/C=C\c2ccc3ccccc3c2)cc(OC)c1OC [NAPHTHYLCOMBRETASTATIN] | 7.80 | – | – | – | – | – |
| – | COc1cc(/C=C\c2ccnc3ccccc23)cc(OC)c1OC | 5.10 | 4.80 | 5.10 | 5.10 | 5.10 | – |
| – | COc1cc(/C=C\c2ccc3ncccc3c2)cc(OC)c1OC | 7.50 | 7.50 | 7.50 | 7.50 | 7.50 | – |
